# Experimental data published in ChEMBL document CHEMBL5385879, “Various strategies for developing APOBEC3G protectors to circumvent human immunodeficiency virus type 1” (Eur J Med Chem, 2023).
# Activity calls are given as the source filed them. No cut-off for these calls is given here.
# Columns and labels:
# [1] = test system: Human immunodeficiency virus 1; test: Antiviral activity against HIV1 infected in HEK293T cells cotransfected with pNL4-3 plus A3G vector assessed as reduction in viral replication measured after 48 hrs post transfection by MAGI assay; assay type: functional, organism-based; details: Human immunodeficiency virus 1, HEK-293T
# [2] = Inhibition of HIV1 Vif to human A3G protein-protein interaction
# [3] = test system: Human immunodeficiency virus 1; test: Antiviral activity against HIV1 Bal infected in PBMCs assessed as reduction in viral replication measured after 7 days post infection; assay type: functional, organism-based; details: Human immunodeficiency virus 1, Bal, PBMC, 168 h
# [4] = Cytotoxicity against human PBMCs; assay type: toxicity, cell-based, PBMC; details: read-out: TC50 (the source's name)
# [5] = Cytotoxicity against HEK293T cells; assay type: toxicity, cell-based, HEK-293T; details: human
# [6] = test system: Human immunodeficiency virus 1; test: Antiviral activity against HIV-1 NL4-3 infected in HEK293T cells cotransfected with VSVG and hA3G-HA assessed as reduction in viral replication preincubated for 36 hrs followed by SubT1 cells infection for 48 hrs by luciferase based assay; assay type: functional, organism-based; details: Human immunodeficiency virus 1, NL4-3, HEK-293T
# [7] = test system: Human immunodeficiency virus 1; test: Antiviral activity against HIV-1 NL4-3 infected in HEK293T cells cotransfected with Vif and hA3G-HA assessed as fold increase in A3G-HA level at 10 uM measured after 36 hrs by Western blotting analysis; assay type: functional
# [8] = target: Virion infectivity factor (Human immunodeficiency virus type 1 group M subtype B (isolate NY5)(HIV-1), UniProt P12504); test: Inhibition of HIV1 Vif; set-up: species or system Human immunodeficiency virus 1
# HEK293T = test: Inhibition of HIV1 Vif expressed in HEK293T cells to cul5 (unknown origin) protein-protein interaction; assay type: cell-based
# [9] = test system: Human immunodeficiency virus 1; test: Antiviral activity against HIV1 infected in H9 cells assessed as reduction in viral replication measured after 4 days post infection; assay type: functional, organism-based; details: Human immunodeficiency virus 1, H9, 96 h
# [10] = test system: Human immunodeficiency virus 1; test: Antiviral activity against HIV-1 Bal infected in PBMCs; assay type: functional, organism-based; details: Human immunodeficiency virus 1, Bal, PBMC
# [11] = Inhibition of HIV1 GST-tagged Vif (1 to 94 residues) to biotinylated-A3G (110 to 148 residues) (unknown origin) protein-protein interaction by TR-FRET assay
# [12] = test system: Human immunodeficiency virus 1; test: Antiviral activity against HIV1 infected in CEM cells assessed as reduction in viral replication measured on day 7 postinfection by ELISA; assay type: functional, organism-based; details: Human immunodeficiency virus 1, CCRF-CEM, 168 h
# [13] = test system: Human immunodeficiency virus 2; test: Antiviral activity against HIV2 infected in C8166 cells assessed as reduction in viral replication measured after 3 days by ELISA; assay type: functional, organism-based; details: Human immunodeficiency virus 2, C8166, 72 h
# [14] = test system: Human immunodeficiency virus 1; test: Antiviral activity against HIV1 infected in C8166 cells assessed as reduction in viral replication measured after 3 days by ELISA; assay type: functional, organism-based; details: Human immunodeficiency virus 1, C8166, 72 h
# [15] = test system: Human immunodeficiency virus 2; test: Antiviral activity against HIV2 infected in PBMCs assessed as reduction in viral replication measured after 7 days by ELISA; assay type: functional, organism-based; details: Human immunodeficiency virus 2, PBMC, 168 h
# [16] = test system: Human immunodeficiency virus 1; test: Antiviral activity against HIV1 infected in PBMCs assessed as reduction in viral replication measured after 7 days by ELISA; assay type: functional, organism-based; details: Human immunodeficiency virus 1, PBMC, 168 h
# Hepatitis B virus [17] = test: Antiviral activity against HBV infected in ETV/3TC-resistant HepG2.A64 cells assessed as reduction in viral replication; assay type: functional, organism-based
# Hepatitis B virus [18] = test: Antiviral activity against wild type HBV infected in HepG2.2.15 cells assessed as reduction in viral replication; assay type: functional, organism-based
# Virion infectivity factor, sequence (P12504 1-150 limits assumed): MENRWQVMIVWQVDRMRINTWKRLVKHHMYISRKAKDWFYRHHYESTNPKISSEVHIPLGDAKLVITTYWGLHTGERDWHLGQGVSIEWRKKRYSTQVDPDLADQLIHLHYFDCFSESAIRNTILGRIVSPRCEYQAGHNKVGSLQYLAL
# Virion infectivity factor, sequence (P12504 151-192 limits assumed): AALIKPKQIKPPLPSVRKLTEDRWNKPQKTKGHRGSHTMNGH
compound,measurement,setting,value
CCOC(=O)c1cc(C(=O)c2ccc3ccccc3c2)n2ccc(C(=O)c3ccccc3)cc12,IC50,[1],25000 nM
COc1ccc(C(=O)Oc2cc(OC)c(OC)c(OC)c2)cc1NC(=O)C(C)Br (stereo not drawn),IC50,[2],17 nM
COc1cc(-c2ccc(Nc3ccccc3C(=O)O)c(OC)c2)ccc1Nc1ccccc1C(=O)O,IC50,[3],1370 nM
same,CC50,[4],> 100000 nM
Cc1noc(C)c1CSc1nc2ccccc2n1-c1ccccc1,IC50,[5],30000 nM
CCCCn1c(SCc2c(C)noc2C)nc2cc(S(N)(=O)=O)ccc21,IC50,[5],30000 nM
Fc1ccc(OCC(Cn2ccnc2)c2ccc(Cl)cc2Cl)cc1 (stereo not drawn),IC50,[6],8630 nM
same,fold change (FC),[7],1.7
COc1ccccc1NC(=O)c1ccccc1Sc1ccc([N+](=O)[O-])cc1,IC50,[8],6000 nM
c1ccc(CN(CCN(Cc2ccccn2)Cc2ccccn2)Cc2ccccn2)nc1,inhibition,HEK293T,Active
N#C/C(=C\c1ccc(Br)nc1)c1nc2ccccc2[nH]1,IC50,[9],1010 nM
C/C(=C/C(=O)c1cccnc1)Nc1ccc(O)cc1,IC50,[3],8400 nM
same,IC50,[10],4200 nM
same,IC50,[11],2180 nM
same,CC50,[4],> 100000 nM
CC(C)(C)OC(=O)NCCCC[C@@H](NC(=O)OCc1ccccc1)C(=O)Oc1ccc([N+](=O)[O-])cc1,IC50,[12],8160 nM
CCCCCCCCCCCCCCCCCCCCCCC(=O)O[C@@H]1[C@@H](C)[C@@]2(O)[C@@H](C=C(COC(C)=O)C[C@]3(O)C(=O)C(C)=C[C@@H]23)[C@@H]2C(C)(C)[C@]12O,IC50,[13],100 nM
same,IC50,[14],100 nM
same,IC50,[15],100 nM
same,IC50,[16],100 nM
CNc1cc(C(=O)Nc2ccc(Cl)cc2)ccc1OC,IC50,Hepatitis B virus [17],3300 nM
same,IC50,Hepatitis B virus [18],1990 nM
COc1ccc(C(=O)Nc2cc(OC)c(OC)c(OC)c2)cc1NC(=O)C(C)Br (stereo not drawn),IC50,[2],17 nM
